From ChEMBL document CHEMBL5375987, “Structural Fusion of Natural and Synthetic Ligand Features Boosts RXR Agonist Potency” (J Med Chem, 2023) come the findings set out here.

Converted amounts (≈) assume the structure as drawn. A value given as a limit tells only on which side of the number the result lay.

Data set [1] deals with T1, Retinoic acid receptor RXR-beta (Homo sapiens, UniProt P28702).
T1 sequence (P28702 whole entry): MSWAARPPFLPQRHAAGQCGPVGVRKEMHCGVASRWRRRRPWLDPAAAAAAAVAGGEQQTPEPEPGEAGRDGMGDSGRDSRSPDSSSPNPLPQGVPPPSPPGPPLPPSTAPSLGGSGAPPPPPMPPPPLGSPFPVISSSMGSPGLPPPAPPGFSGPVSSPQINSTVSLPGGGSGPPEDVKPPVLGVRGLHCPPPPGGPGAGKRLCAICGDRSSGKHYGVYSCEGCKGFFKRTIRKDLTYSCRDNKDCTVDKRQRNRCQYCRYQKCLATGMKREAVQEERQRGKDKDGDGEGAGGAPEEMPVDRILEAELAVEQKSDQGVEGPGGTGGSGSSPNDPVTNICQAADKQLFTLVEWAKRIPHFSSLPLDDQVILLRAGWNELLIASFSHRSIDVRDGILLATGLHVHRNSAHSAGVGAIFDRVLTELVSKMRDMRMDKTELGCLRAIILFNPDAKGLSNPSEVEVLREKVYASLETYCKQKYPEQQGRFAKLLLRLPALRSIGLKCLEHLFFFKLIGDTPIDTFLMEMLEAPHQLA
Put plainly: Agonist activity at full length human RXR beta expressed in HEK293T cells measured after 16 hrs by Dual-glo luciferase assay. It counts as cell-based.

Data set [2] deals with T2, Retinoic acid receptor RXR-alpha (Homo sapiens, UniProt P19793).
T2 sequence (P19793 whole entry): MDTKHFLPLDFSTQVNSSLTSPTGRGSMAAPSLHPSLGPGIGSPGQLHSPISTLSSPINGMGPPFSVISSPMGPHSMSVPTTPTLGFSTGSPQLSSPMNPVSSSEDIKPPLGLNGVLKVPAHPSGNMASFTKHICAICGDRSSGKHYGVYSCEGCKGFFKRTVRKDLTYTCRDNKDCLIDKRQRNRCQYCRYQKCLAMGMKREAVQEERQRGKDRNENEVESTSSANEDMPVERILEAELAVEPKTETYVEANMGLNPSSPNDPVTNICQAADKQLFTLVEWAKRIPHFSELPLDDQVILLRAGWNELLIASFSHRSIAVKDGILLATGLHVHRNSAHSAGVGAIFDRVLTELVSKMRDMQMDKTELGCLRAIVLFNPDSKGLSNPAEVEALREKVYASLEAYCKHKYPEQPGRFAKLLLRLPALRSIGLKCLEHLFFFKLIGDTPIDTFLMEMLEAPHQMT
Description: Agonist activity at full length human RXR alpha expressed in HEK293T cells measured after 16 hrs by Dual-glo luciferase assay

The nature of data set [3]: Thermodynamic aqueous solubility of compound at 24 degreeC measured after 24 hrs by SpectraMax M5e plate reader analysis. In kind it is physicochemical. The note with it: aqueous medium, read-out: Therm_solubility.
For data set [4], the target named is T3, Retinoic acid receptor RXR-gamma (Homo sapiens, UniProt P48443).
T3 sequence (P48443 whole entry): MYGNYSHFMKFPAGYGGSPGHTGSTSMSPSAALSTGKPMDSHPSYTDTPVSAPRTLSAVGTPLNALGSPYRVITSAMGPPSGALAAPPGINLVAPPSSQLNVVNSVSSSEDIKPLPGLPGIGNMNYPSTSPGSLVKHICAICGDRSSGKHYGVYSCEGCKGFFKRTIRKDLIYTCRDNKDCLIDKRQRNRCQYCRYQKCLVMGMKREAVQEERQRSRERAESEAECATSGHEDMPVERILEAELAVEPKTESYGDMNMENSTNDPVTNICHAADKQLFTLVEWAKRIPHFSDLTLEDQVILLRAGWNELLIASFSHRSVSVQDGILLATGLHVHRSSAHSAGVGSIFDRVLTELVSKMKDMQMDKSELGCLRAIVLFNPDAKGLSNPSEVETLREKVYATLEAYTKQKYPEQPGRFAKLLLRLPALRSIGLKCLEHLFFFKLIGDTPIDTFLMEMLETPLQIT
Nature of the data set: Agonist activity at full length human RXR gamma expressed in HEK293T cells measured after 16 hrs by Dual-glo luciferase assay. It counts as cell-based.

The next data set has as its system COS-7. Nature of the data set: Cytotoxicity against green monkey COS-7 cells assessed as inhibition of cell growth at upto 30 uM measured after 24 hrs CCK-8 method. It counts as toxicity, cell-based. The note with it: chlorocebus aethiops, cos-7, 24 h.
The nature of data set [5]: Microsomal stability in Sprague-Dawley rat liver microsomes assessed as compound remaining at 10 uM measured auto 60 mins in presence of NADPH by HPLC-UV method. Particulars: read-out: Stability; call rule not given here. It counts as ADME, Microsome.
A short description of data set [6]: Microsomal stability in Sprague-Dawley rat liver microsomes assessed as half life at 10 uM in presence of NADPH by HPLC-UV method. In kind it is ADME, Microsome.
Data set [7] concerns the target T4, Nuclear receptor subfamily 1 group I member 3 (Homo sapiens, UniProt Q14994).
T4 sequence (Q14994 whole entry): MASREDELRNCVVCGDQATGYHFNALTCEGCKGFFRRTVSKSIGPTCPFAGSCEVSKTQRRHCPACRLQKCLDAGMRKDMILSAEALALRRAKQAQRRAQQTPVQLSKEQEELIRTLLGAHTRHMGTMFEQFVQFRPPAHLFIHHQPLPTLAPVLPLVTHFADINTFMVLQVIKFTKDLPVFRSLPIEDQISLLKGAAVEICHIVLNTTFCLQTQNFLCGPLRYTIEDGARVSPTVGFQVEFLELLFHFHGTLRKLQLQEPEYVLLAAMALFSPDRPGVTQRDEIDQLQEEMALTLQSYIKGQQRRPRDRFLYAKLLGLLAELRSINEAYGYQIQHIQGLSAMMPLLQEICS
Put plainly: Agonist activity at NR1I3 (unknown origin) at 1 uM.

Data set [8] has as its target T4, Nuclear receptor subfamily 1 group I member 3. Nature of the data set: Inverse agonist activity at NR1I3 (unknown origin) at 1 uM.
For data set [9] the target is unchanged. Nature of the data set: Antagonist activity at NR1I3 (unknown origin) at 1 uM.

In data set [1], `C/C(=C\C(=O)O)c1nc(-c2ccccc2)c(-c2ccccc2)o1` returned an EC50 of 7.4 µM.
In the case of `O=C(O)/C=C/c1nc(-c2ccccc2)c(-c2ccccc2)o1`, the results for the concentration for a half-maximal effect (EC50) in [1] and in data set [2] were 13.1 µM and 13 µM, respectively.
In data set [1], `C/C(C(=O)O)=C(/C)c1nc(-c2ccccc2)c(-c2ccccc2)o1` displayed an EC50 of 1.9 µM.
For `OC[C@@H]1C[C@H]1c1nc(-c2ccccc2)c(-c2cc(C(F)(F)F)cc(C(F)(F)F)c2)o1` (racemic), in [3], the solubility thermodynamic at 24 h was determined as 5.8 µM (≈ 2.48 µg/mL).
Regarding `O=C(O)/C=C/c1nc(-c2ccccc2)c(-c2cc(C(F)(F)F)cc(C(F)(F)F)c2)o1`, the EC50 in data set [4] came out at 0.057 µM.
In the case of `O=C(O)[C@@H]1C[C@H]1c1nc(-c2ccccc2)c(-c2cc(C(F)(F)F)cc(C(F)(F)F)c2)o1` (racemic), the Activity result is “Non-Toxic” in the data set with COS-7, “Not Active” in [7], “Not Active” in data set [8] and “Not Active” in data set [9]. Further, the remaining at 1 h, 10 µM in data set [5] turned out to be 79%. In data set [6], the half-life at 10 µM was above 2 h. Besides, the solubility thermodynamic at 24 h in data set [3] came to 18.3 µM (≈ 8.08 µg/mL).
